Assay results from ChEMBL document CHEMBL5518196, “Discovery of potent thiazolidin-4-one sulfone derivatives for inhibition of proliferation of osteosarcoma in vitro and in vivo” (Eur J Med Chem, 2024).
The source made the active and inactive calls. The rule behind the calls is not given here.

Experiments:
[1] = AUC (0 to infinity) in male ICR mouse at 12.5 mg/kg, iv measured after 24 hrs by LC-MS/MS analysis; type: ADME, organism-based; conditions: in vivo
[2] = test system: HOS-TE85; experiment: Inhibition of MYOF protein expression in human MNNG/HOS cells incubated for 24 hrs by Western blot analysis; type: functional, cell-based
[3] = Bioavailability in male ICR mouse at 62.5 mg/kg, ip measured after 24 hrs by LC-MS/MS analysis; type: ADME, organism-based; conditions: in vivo
[4] = test system: HOS-TE85; experiment: Induction of cell cycle arrest in human MNNG/HOS cells incubated for 24 hrs bby PI/RNase A staining based analysis; type: functional
[5] = test system: A549; experiment: Antiproliferative activity against human A549 cells assessed as inhibition of cell growth incubated for 72 hrs by CCK8 assay; type: functional, cell-based; conditions: A549, 72 h
[6] = Toxicity in female BALB/c mouse xenografted with human MNNG/HOS cells assessed as effect on spleen weight at 62.5 mg/kg, ip administered twice daily for 23 days; type: organism-based, HOS-TE85; conditions: in vivo, 552 h, time 23 day
[7] = test system: HOS-TE85; experiment: Antitumor activity against human MNNG/HOS cells xenografted in female BALB/c mouse assessed as tumor growth inhibition at 62.5 mg/kg, ip administered twice daily for 23 days relative to control; type: functional; conditions: HOS-TE85, 552 h, time 23 day, read-out: TGI
[8] = test system: HOS-TE85; experiment: Effect on DDX5 protein expression in human MNNG/HOS cells by ABPP assay; type: functional, cell-based
[9] = test system: HOS-TE85; experiment: Induction of apoptosis in human MNNG/HOS cells at 0.11 to 0.44 uM incubated for 24 hrs by Annexin V-FITC/PI staining based analysis; type: functional, cell-based; conditions: dose 0.11-0.44 µM
[10] = Toxicity in female BALB/c mouse xenografted with human MNNG/HOS cells assessed as effect on kidney weight at 62.5 mg/kg, ip administered twice daily for 23 days; type: organism-based, HOS-TE85; conditions: in vivo, 552 h, time 23 day
[11] = Toxicity in female BALB/c mouse xenografted with human MNNG/HOS cells assessed as effect on liver weight at 62.5 mg/kg, ip administered twice daily for 23 days; type: organism-based, HOS-TE85; conditions: in vivo, 552 h, time 23 day
[12] = Toxicity in female BALB/c mouse xenografted with human MNNG/HOS cells assessed as effect on heart weight at 62.5 mg/kg, ip administered twice daily for 23 days; type: organism-based, HOS-TE85; conditions: in vivo, 552 h, time 23 day
[13] = Toxicity in female BALB/c mouse xenografted with human MNNG/HOS cells assessed as effect on kidney morphology at 62.5 mg/kg, ip administered twice daily for 23 days by Hematoxylin and Eosin staining based analysis; type: organism-based, HOS-TE85; conditions: in vivo, 552 h, time 23 day
[14] = Toxicity in female BALB/c mouse xenografted with human MNNG/HOS cells assessed as effect on heart morphology at 62.5 mg/kg, ip administered twice daily for 23 days by Hematoxylin and Eosin staining based analysis; type: organism-based, HOS-TE85; conditions: in vivo, 552 h, time 23 day
[15] = Toxicity in female BALB/c mouse xenografted with human MNNG/HOS cells assessed as effect on liver morphology at 62.5 mg/kg, ip administered twice daily for 23 days by Hematoxylin and Eosin staining based analysis; type: organism-based, HOS-TE85; conditions: in vivo, 552 h, time 23 day
[16] = test system: MGC-803; experiment: Antiproliferative activity against human MGC-803 cells assessed as inhibition of cell growth incubated for 72 hrs by CCK8 assay; type: functional, cell-based; conditions: MGC-803, 72 h
[17] = test system: PC-3; experiment: Antiproliferative activity against human PC-3 cells assessed as inhibition of cell growth incubated for 72 hrs by CCK8 assay; type: functional, cell-based; conditions: PC-3, 72 h
[18] = test system: 143B; experiment: Antiproliferative activity against human 143B cells assessed as inhibition of cell growth incubated for 72 hrs by CCK8 assay; type: functional, cell-based
[19] = test system: HOS-TE85; experiment: Antiproliferative activity against human MNNG/HOS cells assessed as inhibition of cell growth incubated for 72 hrs by CCK8 assay; type: functional, cell-based; conditions: HOS-TE85, 72 h
[20] = test system: HOS-TE85; experiment: Antitumor activity against human MNNG/HOS cells xenografted in female BALB/c mouse assessed as reduction in tumor volume at 62.5 mg/kg, ip administered twice daily for 23 days; type: functional, organism-based; conditions: time 23.0 day
[21] = AUC (0 to infinity) in male ICR mouse at 62.5 mg/kg, ip measured after 24 hrs by LC-MS/MS analysis; type: ADME, organism-based; conditions: in vivo
[22] = test system: HOS-TE85; experiment: Antiproliferative activity against human MNNG/HOS cells transfected with DDX5 shRNA assessed as inhibition of cell growth incubated for 72 hrs by CCK8 assay; type: functional, cell-based; conditions: HOS-TE85, 72 h
[23] = test system: HOS-TE85; experiment: Induction of apoptosis in human MNNG/HOS cells assessed as effect on Bax level incubated for 24 hrs by Western blot analysis; type: functional, cell-based
[24] = Cmax in male ICR mouse at 12.5 mg/kg, iv measured after 24 hrs by LC-MS/MS analysis; type: ADME, organism-based; conditions: in vivo
[25] = Antiproliferative activity against BMSC (unknown origin) assessed as inhibition of cell growth incubated for 72 hrs by CCK8 assay; type: functional, cell-based
[26] = Metabolic stability in mouse liver microsomes assessed as half-life at 0.1 uM preincubated for 10 mins followed by NADPH addition and measured upto 60 mins by LC-MS/MS analysis; type: ADME, Microsome; conditions: time < 70 min
[27] = Half-life in male ICR mouse at 12.5 mg/kg, iv measured after 24 hrs by LC-MS/MS analysis; type: ADME, organism-based; conditions: in vivo
[28] = test system: SJSA-1; experiment: Antiproliferative activity against human SJSA-1 cells assessed as inhibition of cell growth incubated for 72 hrs by CCK8 assay; type: functional, cell-based; conditions: SJSA-1, 72 h
[29] = Cmax in male ICR mouse at 62.5 mg/kg, ip measured after 24 hrs by LC-MS/MS analysis; type: ADME, organism-based; conditions: in vivo
[30] = Toxicity in female BALB/c mouse xenografted with human MNNG/HOS cells assessed as effect on spleen morphology at 62.5 mg/kg, ip administered twice daily for 23 days by Hematoxylin and Eosin staining based analysis; type: organism-based, HOS-TE85; conditions: in vivo, 552 h, time 23 day
[31] = test system: HOS-TE85; experiment: Inhibition of colony formation in human MNNG/HOS cells incubated for 10 days by crystal violet staining based light microscopic analysis; type: functional, cell-based; conditions: dose 0.1-0.4 µM, time 10.0 day
[32] = Metabolic stability in human liver microsomes assessed as bioavailability at 0.1 uM preincubated for 10 mins followed by NADPH addition and measured upto 60 mins by LC-MS/MS analysis; type: ADME, Microsome; conditions: time < 70 min
[33] = test system: MG-63; experiment: Antiproliferative activity against human MG-63 cells assessed as inhibition of cell growth incubated for 72 hrs by CCK8 assay; type: functional, cell-based; conditions: MG-63, 72 h
[34] = test system: HOS-TE85; experiment: Induction of apoptosis in human MNNG/HOS cells assessed as effect on caspase-3 level incubated for 24 hrs by Western blot analysis; type: functional, cell-based
[35] = test system: HOS-TE85; experiment: Potency index, ratio of sorafenib IC50 to test compound IC50 for antiproliferative activity against human MNNG/HOS cells; type: functional
[36] = test system: HOS-TE85; experiment: Induction of apoptosis in human MNNG/HOS cells assessed as effect on Bcl-2 level incubated for 24 hrs by Western blot analysis; type: functional, cell-based
[37] = test system: HOS-TE85; experiment: Inhibition of cell migration in human MNNG/HOS cells assessed as reduction in closure rate at 0.2 uM incubated for 24 hrs by wound healing assay; type: functional, cell-based
[38] = Metabolic stability in human liver microsomes assessed as half-life at 0.1 uM preincubated for 10 mins followed by NADPH addition and measured upto 60 mins by LC-MS/MS analysis; type: ADME, Microsome; conditions: time < 70 min
[39] = Clearance in male ICR mouse at 12.5 mg/kg, iv measured after 24 hrs by LC-MS/MS analysis; type: ADME, organism-based; conditions: in vivo
[40] = test system: HOS-TE85; experiment: Inhibition of p53 protein expression in human MNNG/HOS cells incubated for 24 hrs by Western blot analysis; type: functional, cell-based
[41] = test system: SAOS-2; experiment: Antiproliferative activity against human SAOS-2 cells assessed as inhibition of cell growth incubated for 72 hrs by CCK8 assay; type: functional, cell-based; conditions: SAOS-2, 72 h
[42] = Half-life in male ICR mouse at 62.5 mg/kg, ip measured after 24 hrs by LC-MS/MS analysis; type: ADME, organism-based; conditions: in vivo

COCCCCNC(=O)c1cccc(C2N(c3ncccc3OC)C(=O)CS2(=O)=O)n1 (racemic)
AUC(0-inf) [1]: 1660 ng·h/mL
inhibition [2]: inactive
bioavailability [3]: 115%
Activity [4]: inactive
IC50 [5]: 1.89 µM
Activity [6]: Non-Toxic
inhibition in vivo at 62.5 mg/kg [7]: 44.6%
Activity [8]: inactive
Activity [9]: inactive
Activity [10]: Non-Toxic
Activity [11]: Non-Toxic
Activity [12]: Non-Toxic
Activity [13]: Non-Toxic
Activity [14]: Non-Toxic
Activity [15]: Non-Toxic
IC50 [16]: 0.394 µM
IC50 [17]: 4.3 µM
IC50 [18]: 0.295 µM
IC50 [19]: 0.217 µM
Activity [20]: Active
AUC(0-inf) [21]: 9560 ng·h/mL
IC50 [22]: 0.277 µM
Activity [23]: inactive
Cmax [24]: 5420 ng/mL
IC50 [25]: 2.13 µM
half-life at 0.1 µM [26]: 1.23 h
half-life [27]: 0.222 h
IC50 [28]: 0.304 µM
Cmax [29]: 78.3 ng/mL
Activity [30]: Non-Toxic
inhibition [31]: Dose-Dependent Effect
bioavailability at 0.1 µM [32]: 59.3%
IC50 [33]: 1.09 µM
Activity [34]: inactive
Ratio IC50 [35]: ~20
Activity [36]: inactive
inhibition [37]: Active
half-life at 0.1 µM [38]: 2.6 h
clearance [39]: 126 mL/min/kg
inhibition [40]: inactive
IC50 [41]: 0.43 µM
half-life [42]: 1.53 h
